According to patent US9718809B2, “Bisarylsulfonamides useful in the treatment of inflammation and cancer” (Kancera AB, priority 2011, dated 2017):
Where a name gives a salt, the structure may show the parent alone.

system: NUGC-3 cells; test: Inhibition of cancer cell proliferation, total cellular protein (Sulphorhodamine B), NUGC-3; settings: Homo sapiens, 72 h, read-out: IC50 based on quantitation of total cellular protein after treatment
Procedure: (§1) To assess the antiproliferative response elicited by the compounds of the present invention in different tumour cell lines, total cellular protein in samples was quantified using the Sulphorhodamine B kit, TOX6, (Sigma-Aldrich). The protocol is based on quantitation of total cellular protein after indicated treatments and incubation times using the Sulphorhodamine B kit, TOX6, (Sigma-Aldrich).
(§2) Briefly, after protein precipitation using TCA according to the manufacturer's instructions, the sulphorhodamine dye (80 μL/well) was added to the air-dried wells. After 20 min incubation at room temperature, the dye was discarded and the samples were gently rinsed with 1% HOAc until clear. After air drying, bound dye was solubilised in 200 μL 10 mM Tris base, and the absorbance of dye was measured at 565 nm. To quantify growth, samples were collected also at t=0 h, and the resulting absorbance was set to 100%.
(§3) For experiments studying the effect of the herein described compounds per se, i.e. without combination treatment with cisplatin, the above protocol was applied with the following modifications. See Table II for details for each specific cell line. Briefly, cells were plated at a density of 6,000 cells/well 96-well Corning Costar tissue culture plates (CLS3596, Sigma-Aldrich) in assay medium and allowed to attach over night at 37° C., 5% CO2. Day 2 the compounds were diluted ½ in dose response curve mode in 100% DMSO, required volume was transferred to assay medium to a maximal DMSO concentration of 0.1%. The diluted compounds were added to the cells with a starting dose response concentration of 100 μM. All compounds were tested in duplicate plates.
as §2, with “After” for “Briefly, after”, “sulforhodamine B” for “sulphorhodamine”, “(50” for “(80”, “100” for “200”, “530 nm and a background absorbance (subtract from the measurement at 530 nm) at 690” for “565”, “h.” for “h, and the resulting absorbance was set to 100%.”

Row | IC50 [µM] | SMILES
1 | 22.5 | COC(=O)c1ccc(NS(=O)(=O)c2cc(-c3cc(F)ccc3F)c(Cl)s2)cc1O [Example 45, Methyl 4-({[5-chloro-4-(2,5-difluorophenyl)-2-thienyl]sulfonyl}amino)-2-hydroxybenzoate]
2 | 16.4 | CCC(COC)OC(=O)c1ccc(NS(=O)(=O)c2cc(Cl)cc(Cl)c2)cc1O (centres unmarked) [Example 189, 1-(Methoxymethyl)propyl 4-{[(3,5-dichlorophenyl)sulfonyl]amino}-2-hydroxybenzoate]
3 | 13 | COC(=O)c1ccc(NS(=O)(=O)c2cccc(-c3cc(F)ccc3O)c2)cc1O [Example 134, Methyl 4-{[(5′-fluoro-2′-hydroxybiphenyl-3-yl)sulfonyl]amino}-2-hydroxybenzoate]
4 | 6.8 | O=C(OCCOc1ccccc1)c1ccc(NS(=O)(=O)c2cccc(-c3cc(F)ccc3O)c2)cc1O [Example 203, 2-Phenoxyethyl 4-{[(5′-fluoro-2′-hydroxybiphenyl-3-yl)sulfonyl]amino}-2-hydroxybenzoate]

system: PANC-1 cells; test: Inhibition of cancer cell proliferation, total cellular protein (Sulphorhodamine B), PANC-1; settings: Homo sapiens, 72 h, read-out: IC50 based on quantitation of total cellular protein after treatment
Procedure: as §1, §2, §3
as §2, with “After” for “Briefly, after”, “sulforhodamine B” for “sulphorhodamine”, “(50” for “(80”, “100” for “200”, “530 nm and a background absorbance (subtract from the measurement at 530 nm) at 690” for “565”, “h.” for “h, and the resulting absorbance was set to 100%.”

Row | IC50 [µM] | SMILES
5 | 20.6 | O=C(OCCCN1CCOCC1)c1ccc(NS(=O)(=O)c2c(Cl)sc(Cl)c2Br)cc1O [Example 199, 3-Morpholin-4-ylpropyl 4-{[(4-bromo-2,5-dichlorothiophen-3-yl)sulfonyl]amino}-2-hydroxybenzoate trifluoroacetate]
6 | 15.6 | CC(C)OC(=O)c1ccc(NS(=O)(=O)c2cc(Cl)c(Cl)s2)cc1O [Example 68, Isopropyl 4-{[(4,5-dichloro-2-thienyl)sulfonyl]amino}-2-hydroxybenzoate]
7 | 30.2 | O=C(OCCCN1CCOCC1)c1ccc(NS(=O)(=O)c2cc(-c3ccc4c(c3)CCO4)c(Cl)s2)cc1O [Example 163, 3-Morpholin-4-ylpropyl 4-({[5-chloro-4-(2,3-dihydro-1-benzofuran-5-yl)-2-thienyl]sulfonyl}amino)-2-hydroxybenzoate trifluoroacetate]

system: SW480 cells; test: Inhibition of cancer cell proliferation, total cellular protein (Sulphorhodamine B), SW480; settings: Homo sapiens, 72 h, read-out: IC50 based on quantitation of total cellular protein after treatment
Procedure: as §1, §2, §3
After protein precipitation using TCA according to the manufacturer's instructions, the sulforhodamine B dye (50 μL/well) was added to the air-dried wells. […] After air drying, bound dye was solubilised in 100 μL 10 mM Tris base, and the absorbance of dye was measured at 530 nm and a background absorbance (subtract from the measurement at 530 nm) at 690 nm. To quantify growth, samples were collected also at t=0 h.

Row | IC50 [µM] | SMILES
8 | 22.3 | COCC(C)OC(=O)c1ccc(NS(=O)(=O)c2cc(Cl)cc(Cl)c2)cc1O (centres unmarked) [Example 192, 2-Methoxy-1-methylethyl 4-{[(3,5-dichlorophenyl)sulfonyl]amino}-2-hydroxybenzoate]
9 | 15.9 | COCCOC(=O)c1ccc(NS(=O)(=O)c2cccc(-c3cc(F)ccc3F)c2)cc1O [Example 172, 2-Methoxyethyl 4-{[(2′,5′-difluorobiphenyl-3-yl)sulfonyl]amino}-2-hydroxybenzoate]
10 | 20.4 | CCC(COC)OC(=O)c1ccc(NS(=O)(=O)c2cc(Cl)c(Cl)s2)cc1O (centres unmarked) [Example 195, 1-(Methoxymethyl)propyl 4-{[(4,5-dichlorothiophen-2-yl)sulfonyl]amino}-2-hydroxybenzoate]

system: not listed separately; test: Cell toxicity, CellTiter-Blue Cell Viability Assay; settings: human, MIA PaCa-2 pancreatic carcinoma cells, MIA PaCa-2 cells, 72 h culture, read-out: IC50 based on cell toxicity
Procedure: The CellTiter-Blue® Cell Viability Assay provides a homogeneous, fluorometric method for estimating the number of viable cells present in multi-well plates. It uses the indicator dye resazurin to measure the metabolic capacity of cells. Viable cells retain the ability to reduce resazurin into resorufin, which is highly fluorescent.
Stock solutions (10 or 100 mM in DMSO) of compounds were serially diluted 1:2 in 11 concentrations. 25 nL/well (100 mM stock) or 50 nL/well (10 mM stock) were acoustically dispensed in assay plates with EDC acoustic dispenser. Final starting conc. in assay was 20 μM (0.2% DMSO) or 100 μM (0.1% DMSO) for test compounds.
Cells (MIA-PaCa-2; pancreatic carcinoma) were seeded in assay plates (384-well black/clear, Greiner #781091) pre-dispensed with compounds, 25 μL/well, and cultured for 72 h. The cell concentration was 750 cells/well. After 72 h culture, Celltiter Blue reagent was added (5 μL/well) and the plates were incubated for 2 h. The plates were read in an Envision fluorescence reader with Ex544 nm/Em590 nm. Results were calculated as % cytotoxicity compared to background (cells treated with 0.2% DMSO).

Row | SMILES | IC50 at 72 h [µM]
11 | O=C(OCC1CCOC1)c1ccc(NS(=O)(=O)c2cc(Cl)c(Cl)s2)cc1O (centres unmarked) [Example 75, Tetrahydrofuran-3-ylmethyl 4-{[(4,5-dichloro-2-thienyl)sulfonyl]amino}-2-hydroxybenzoate] | 25.3
12 | O=C(OCCCN1CCOCC1)c1ccc(NS(=O)(=O)c2cccc(-c3cc(F)ccc3O)c2)cc1O [Example 160, 3-Morpholin-4-ylpropyl 4-{[(5′-fluoro-2′-hydroxybiphenyl-3-yl)sulfonyl]amino}-2-hydroxybenzoate trifluoroacetate] | 3.6
13 | CC(C)(C)OC(=O)N1CCC(OC(=O)c2ccc(NS(=O)(=O)c3c(Cl)sc(Cl)c3Cl)cc2O)C1 (centres unmarked) [Example 205, tert-Butyl 3-[(2-hydroxy-4-{[(2,4,5-trichloro-3-thienyl)sulfonyl]amino}benzoyl)oxy]pyrrolidine-1-carboxylate] | 17.7
14 | CCC(COC(=O)c1ccc(NS(=O)(=O)c2cccc(-c3cc(F)ccc3O)c2)cc1O)OC (centres unmarked) [Example 182, 2-Methoxybutyl 4-{[(5′-fluoro-2′-hydroxybiphenyl-3-yl)sulfonyl]amino}-2-hydroxybenzoate] | 6.3
